These results are taken from PubChem BioAssay (NCI).

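Cells were grown in 96-well plates and exposed to each compound for 48 hours at five concentrations; endpoints were interpolated linearly between bracketing concentrations, or set to the highest concentration if not reached. Abbreviation: GI50, concentration required for 50% inhibition of growth. The concentration for full growth arrest is given as TGI.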

Experiment in all cases: DTP human tumour cell line panel, 48 h
In assay [1] the test system is HS 578T breast.
Assay [2] has as its system MCF7 breast.
In assay [3] the test system is EKVX NSCLC.
In assay [4] the test system is A498 renal.
Assay [5] deals with U251 CNS.
In assay [6] the test system is SN12C renal.
For assay [7], the system named is HL-60(TB) leukemia.
Assay [8] deals with SF-268 CNS.
For assay [9], the system named is HCT-116 colon.
The subject of assay [10] is OVCAR-8 ovarian.

Turning to `CC(=N\O)/C(C)=N/O.CC(=N\O)/C(C)=N/O.CC(=N\O)/C(C)=N/O.CC(=N\O)/C(C)=N/O.[Cu].[Cu]`, the GI50 in [1] was 29.6 µM; in [2], 17.3 µM; in [3], 19.4 µM; in assay [4], 24.4 µM; in assay [5], 17.6 µM; in [6], 18.8 µM. In addition, the GI50 in [7] was 26.4 µM; in assay [8], 19.8 µM; in [9], 19.2 µM; in assay [10] it was 20.3 µM. In addition, the total growth inhibition concentration (TGI) in assay [1] was found to be 65.9 µM; in assay [2], 31.2 µM; in assay [3], 38.2 µM; in [4] it was 39.1 µM; in assay [5] it was 31.3 µM; in assay [6], 35.2 µM. For the same molecule, the TGI amounted to 44.4 µM in assay [7], 34.6 µM in assay [8], 35.6 µM in assay [9] and 38.3 µM in assay [10].

For the molecule `O=S1(=O)N(Cc2ccccc2)[C@@H](Cc2ccccc2)C2O[C@H]2[C@H](Cc2ccccc2)N1Cc1ccccc1` (stereo partly specified), the GI50 in [1] is > 7.5 µM; in assay [2], 4.27 µM; in assay [3], 6.55 µM; in assay [4] it was > 7.5 µM; in [5], 1.84 µM; in assay [6], > 7.5 µM. For the same molecule, the GI50 is 4.75 µM in [7], 6.08 µM in assay [8], 0.844 µM in [9] and > 7.5 µM in assay [10]. The TGI in assay [1], in [2], in assay [3], in assay [4], in [5] and in assay [6] was > 7.5 µM each time. Also, the TGI in assay [7], in [8], in [9] and in assay [10] was > 7.5 µM throughout.

On to `Cc1[nH]c(C(=O)Nc2ccc(C(=O)N3CCNCC3)cc2OC(C)C)c(Cl)c1Cl`, for which the GI50 in assay [1] was 1.74 µM; in assay [2], 1.8 µM; in [3], 3.49 µM; in assay [4] it was 11.2 µM; in assay [5], 1.77 µM; in assay [6] it was 1.94 µM. Also, the GI50 in assay [7] is 2.21 µM; in assay [8] it was 1.85 µM; in assay [9], 1.85 µM; in assay [10], 2.25 µM. Further, the TGI in assay [1] amounted to 3.91 µM; in [2], 3.59 µM; in assay [3] it was 15 µM; in assay [4], 24.7 µM; in assay [5], 3.46 µM; in assay [6] it was 4.28 µM. Moreover, the TGI came out at 4.44 µM in assay [7], 3.81 µM in [8], 3.41 µM in assay [9] and 5.32 µM in [10].

`Cc1nc2cncc(C#Cc3cncc(C(=O)Nc4ccc(CN5CCN(C)CC5)c(C(F)(F)F)c4)c3)c2nc1C`: the GI50 in [1] is 0.193 µM; in [2], 0.841 µM; in [3], 0.8 µM; in assay [4], 0.0756 µM; in assay [5], 0.559 µM; in [6], 0.275 µM. Further, the concentration for 50% growth inhibition (GI50) in [7] is 0.237 µM; in assay [8] it was 0.552 µM; in assay [9], 0.248 µM; in assay [10] it was 0.721 µM. Also, the total growth inhibition concentration (TGI) is 1.61 µM in assay [1]; 6.78 µM in [2]; 5.05 µM in [3]; 0.772 µM in assay [4]; 7.43 µM in [5]; 17 µM in assay [6]. Moreover, the TGI in [7] stood at 1.38 µM; in assay [8], 18.8 µM; in assay [9] it was 2.22 µM; in assay [10], 8.88 µM.

`Cc1ccc2c[c]1[Hg][CH2]COS2(=O)=O`: the GI50 is 23.7 µM in assay [1]; 17.9 µM in assay [2]; 21.5 µM in assay [3]; 15.8 µM in assay [4]; 17.5 µM in [5]; 17.2 µM in assay [6]. Further, the GI50 in assay [7] was 21.8 µM; in [8], 18 µM; in assay [9], 16.6 µM; in assay [10], 16 µM. Besides, the TGI in assay [1] stood at 58.1 µM; in assay [2] it was 39.4 µM; in assay [3] it was 38.5 µM; in [4] it was 29.3 µM; in assay [5], 31.3 µM; in [6], 30.9 µM. In addition, the TGI in assay [7] came to 42.1 µM; in assay [8], 32.4 µM; in assay [9], 30.2 µM; in assay [10] it was 29.5 µM.

For `COC(=O)Nc1nc2ccc(Oc3ccc(NC(=O)Nc4cccc(Br)c4)cc3)cc2[nH]1`, the GI50 in [1] is 3.16 µM; in assay [2], 0.22 µM; in [3], 8.28 µM; in assay [4], 2.1 µM; in [5], 1.78 µM; in assay [6], 4.65 µM. In addition, the GI50 in assay [7] was 1.06 µM; in [8], 3.98 µM; in assay [9], 1.32 µM; in assay [10] it was 4.32 µM. For the same molecule, the TGI in [1] was > 19.8 µM; in assay [2], 3.77 µM; in [3], > 25 µM; in assay [4], 17.4 µM; in assay [5], 5.68 µM; in assay [6], > 25 µM. Besides, the concentration for total growth inhibition (TGI) in assay [7] is > 10.6 µM; in assay [8] it was > 25 µM; in assay [9] it was > 12.6 µM; in assay [10], > 20 µM.

With `CCCCCCCCCCCCCC[P+](CCCCCC)(CCCCCC)CCCCCC`, the GI50 in assay [1] was 0.041 µM; in assay [2] it was 0.146 µM; in assay [3], 0.0632 µM; in assay [5], 0.0384 µM; in assay [6], 0.041 µM; in assay [7] it was 0.0303 µM. Besides, the figures for the GI50 in assay [9] and in assay [10] were 0.0606 µM and 0.0856 µM, respectively. Besides, the total growth inhibition concentration (TGI) in assay [2] stood at 1.3 µM; in assay [3], 0.917 µM; in assay [4] it was 1.03 µM; in [5], 1.29 µM; in assay [6], 1.17 µM; in assay [7], 0.0966 µM. The TGI in [9] was > 100 µM; in [10], 1.78 µM.

In the case of `C=C(C)C(=O)OC1CC2(C)OC2CC(OC(C)=O)/C(C)=C/C2OC(=O)C(=C)C21` (stereo unspecified), the TGI was 30.6 µM in assay [1]; 12.2 µM in assay [2]; 18.2 µM in [3]; 26.4 µM in [4]; 25.1 µM in [5]; 9.37 µM in [6]. The TGI in assay [7] worked out at 1.14 µM; in assay [8], 15.3 µM; in assay [9], 3.61 µM; in assay [10] it was 18.7 µM.

A word on the GI50: it is the concentration giving 50% growth inhibition. The term TGI denotes the concentration at which net growth stops.
